Patent US5045531A, “Wound treatment employing biologically active ion channel forming peptides and proteins” (Magainin Sciences Inc., priority 1989, dated 1991)
No end group written: not given here.

Legend:
[1] = system: polyvinylchloride sponge disc implants (wound healing); assay: Collagen content of subcutaneous polyvinylchloride sponge disc implants in rats (pepsin extracted native collagen); format: in vivo, rat; details: at seven days, control group 3.43 mg/sponge
Excerpt: (§1) Twenty-two male rats weighing between 300 g and 325 g were anesthetized, after which their backs and abdomens were shaved and washed with 70% ethanol. Three modified polyvinylchloride sponge discs 2 mm thick and 15 mm in diameter were implanted in each rat abdominally in subcutaneous pockets made under the skin. Two of the implants were cut in half and rejoined before the implantation, and the remaining disc was sandwiched between two silicone discs which forced granulation tissue infiltration to occur from the periphery of the disc. A single 15 mm×15 mm square full excision wound was made on the back and the wound edges tattooed.
(§2) The rats were then divided into four groups. A first, or control, group of four rats received sham injections daily. A second group of four rats received daily intramuscular injections of 10 mg of cortisone acetate. Cortisone is known to be an inhibitor of wound healing. A third group of seven rats received daily intramuscular injections of 0.3 mg of amide-terminated Magainin II. A fourth group of seven rats received daily intramuscular injections of 10 mg of cortisone acetate and 0.3 mg of Magainin II at separate sites. At seven days, rat weights were recorded, wound sizes measured, and the implants harvested. The staple which joined the two disc halves together was carefully removed and the breaking strength measured. Collagen content from the implant halves from each treatment group was measured by weighing the pepsin extracted native collagen. The sponge halves are homogenized in 0.5M ice-cold acetic acid containing 0.1 mg of pepsin per ml. The homogenate was stirred for 24 hours at 4° C., centrifuged, and supernatants saved. The native solubilized collagen was isolated by adding sodium chloride to 10 % w/v. The salt precipitate was collected by centrifugation (10,000× g for 10 min.) and then taken up in 145 mM potassium phosphate buffer pH7.6, exhaustively dialyzed against 1 mM HCl, lyophilized and its dry weight recorded. Confirmation of collagen purity was made by SDS polyacrylamide gel electrophoresis. […]

[2] = system: polyvinylchloride sponge disc implants (wound healing); assay: Wound breaking strength of rejoined sponge disc halves implanted in rats; format: in vivo, rat; details: at seven days, control group 440 g
Excerpt: as §1, §2

full excision wound = assay: Wound contraction of 15 mm x 15 mm square full excision wound on the back of rats; format: in vivo, rat; details: for average wound contraction: at seven days, control group 67%
Excerpt: as §1
The rats were then divided into four groups. A first, or control, group of four rats received sham injections daily. A second group of four rats received daily intramuscular injections of 10 mg of cortisone acetate. Cortisone is known to be an inhibitor of wound healing. A third group of seven rats received daily intramuscular injections of 0.3 mg of amide-terminated Magainin II. A fourth group of seven rats received daily intramuscular injections of 10 mg of cortisone acetate and 0.3 mg of Magainin II at separate sites. At seven days, rat weights were recorded, wound sizes measured, and the implants harvested. The staple which joined the two disc halves together was carefully removed and the breaking strength measured. Collagen content from the implant halves from each treatment group was measured by weighing the pepsin extracted native collagen. The sponge halves are homogenized in 0.5M ice-cold acetic acid containing 0.1 mg of pepsin per ml. The homogenate was stirred for 24 hours at 4° C., centrifuged, and supernatants saved. The native solubilized collagen was isolated by adding sodium chloride to 10 % w/v. The salt precipitate was collected by centrifugation (10,000× g for 10 min.) and then taken up in 145 mM potassium phosphate buffer pH7.6, exhaustively dialyzed against 1 mM HCl, lyophilized and its dry weight recorded. Confirmation of collagen purity was made by SDS polyacrylamide gel electrophoresis. Pepsin digestion extracts only native collagen, needed for the formation of collagen fibers. The accumulations of collagen in the early stages of healing are responsible for gain in wound tensile strength. Collagen content from the implants taken from the group treated with cortisone acetate alone averged 0.82 mg/sponge, as compared with 3.43 mg/sponge for the control group.

[3] = system: cortisone inhibition of wound healing; details: antagonism of cortisone-inhibited wound healing; cited from earlier work
[4] = cortisone acetate alone, 10 mg daily intramuscular
[5] = 0.3 mg Magainin II plus 10 mg cortisone acetate daily intramuscular at separate sites
[6] = Magainin II alone, 0.3 mg daily intramuscular

## CC(=O)OCC(=O)[C@@]1(O)CC[C@H]2[C@@H]3CCC4=CC(=O)CC[C@]4(C)[C@H]3C(=O)C[C@@]21C [cortisone acetate]
[1]; [4]
  average collagen content: 0.82 mg/sponge
[2]; [4]
  average wound breaking strength: 195 g
Full excision wound; [4]
  average wound contraction: 28%

## growth hormone: other antagonist of cortisone inhibition of wound healing
[3]
  restoring connective tissue deposition: effective in restoring connective tissue deposition
  restoring wound contraction: ineffective in restoring wound contraction

## Vitamin A
[3]
  restoring connective tissue deposition: effective in restoring connective tissue deposition
  restoring wound contraction: ineffective in restoring wound contraction

## GIGKFLHSAKKFGKAFVGEIMNS-NH2 [Magainin II]
[1]; [5]
  average collagen content: 3.20 mg/sponge
[1]; [6]
  average collagen content: 3.82 mg/sponge
[2]; [5]
  average wound breaking strength: 320 g
[2]; [6]
  average wound breaking strength: 415 g
Full excision wound; [5]
  average wound contraction: 53%
Full excision wound; [6]
  average wound contraction: 65%
Full excision wound; rats given cortisone acetate and Magainin II, conclusion in words
  effect on cortisone inhibition of wound healing (collagen deposition and wound contraction): antagonistic of cortisone inhibition of wound healing
